Experimental data published in patent US12162861B2, “Dopamine D3 receptor selective antagonists/partial agonists; method of making; and use thereof” (THE UNITED STATES OF AMERICA, AS REPRESENTED BY THE …, priority 2016, dated 2024).
“Also recorded” adds a separate entry of the source.

Experiments:
Long-Evans rats [1] = assay: Oxycodone-induced conditioned place preference (CPP) in rats; format: in vivo, rat
Description: CPP was tested in the place-conditioning apparatus (Med Associates, St Albans, VT) consisting of two side compartments (21×28 cm^2) and a central gray connecting area (21×12.5 cm^2); a sliding door separated each compartment from the connecting area. The two side compartments differed in wall color (black vs white), floor type (net vs grid), and illumination. Each rat was first exposed in the CPP apparatus for 15 minutes (preconditioning) and then followed by oxycodone CPP conditioning. […] Oxycodone CPP procedures consisted of 2 days of oxycodone (3 mg/kg, ip) conditioning in one compartment and 2 days of saline conditioning in another compartment, alternatively (e.g., oxycodone-saline-oxycodone-saline). The compartments paired with oxycodone or saline were counterbalanced. […] After oxycodone injection, animals were immediately confined in the assigned compartments for 40 minutes. To potentiate oxycodone CPP formation, animals received 4 days of oxycodone (3 mg/kg, ip, twice daily at 8:00 and 18:00) treatment at home cages. […] In the (Vehicle+vehicle) group, saline was paired with each compartment. Then 24 hours after the last saline or oxycodone conditioning injection, animals were placed in the same three-chamber CPP apparatus for 15 minutes and the time spent in each compartment was recorded. The CPP score was calculated by the time difference (seconds) that animal spent in drug-paired compartment versus saline-paired compartment.

rats = assay: Thermal response (hot plate) in rats; format: in vivo, rat; conditions: hot plate 52 °C, FIG. 13
Description: Methods: Compound (±)-29 was administered 15 minutes before saline or oxycodone challenge. Tests were performed after the rat was placed inside a transparent circular cage on a hot plate (52±0.2° C.). Licking the hind paw or jumping was considered as a sign of thermal nociception. The rat was then immediately removed from the hot plate and the time latency was recorded.

Long-Evans rats [2] = assay: Oxycodone self-administration in rats; format: in vivo, rat; conditions: for oxycodone self-administration (oxycodone taking): FR1, 5-25 mg/kg i.p., FIG. 3A
Description: MATERIALS AND METHODS: Male Long-Evans rats (Charles-River, Raleigh, N.C.) were used. […] All the experimental procedures were consistent with the “Principles of Laboratory Animal Care” published by National Institutes of Health (NIH publication 86-23, 1996) and were approved by the NIDA Animal Care and Use Committee.
Surgery: Rats (300-350 g) used for oxycodone self-administration were first implanted with an intravenous catheter. They were anaesthetized with pentobarbital (30 mg/kg i.p.) supplemented with chloral hydrate (140 mg/kg, i.p.). A small incision was next made to the right of the midline of the neck and the external jugular vein was externalized and an i.v. catheter, made of microrenathane (Braintree Scientific Inc., Braintree, MA, USA) was inserted with its tip reaching right atrium. The catheter was secured to the vein with silk suture and the other end fed subcutaneously around the back of the neck to exit near the back of the skull. The end was slipped over a bent 24-gauge stainless steel cannula (Plastic One Inc., Roanoke, VA, USA) with a threaded head used to secure a dummy cannula and, during experimentation, an infusion line. The catheter and the guide cannula were then secured to the skull with four stainless steel screws threaded into the skull and dental cement and the wound was sutured.
After surgery, the catheters were flushed daily with a gentamicin-heparin-saline solution (30 IU/ml heparin; ICN Biochemicals, Cleveland, OH, USA) as precaution against catheter clogging and infection. The animals were allowed to recover for at least 5 days before the behavioral training started.
Self-administration apparatus and oxycodone self-administration training: Rats in 3 experimental tests were first trained to self-administer oxycodone. The self-administration apparatus and procedures have been described previously (Xi et al., 2004, 2005). […] This infusion time was also served as a timeout period during which the light-tone cue was kept activated and animal' responses on the active lever were recorded but had no scheduled consequence. […]

[3] = Sucrose self-administration; format: in vivo; conditions: pretreatment (±)-29 15 and 25 mg/kg, (±)-19 1 and 5 mg/kg
Long-Evans rats [4] = assay: Reinstatement of drug-seeking induced by oxycodone priming in rats; format: in vivo, rat; conditions: 5-15 mg/kg i.p., oxycodone priming 1 mg/kg i.p.
Description: Experiment 3. […] After completion of self-administration training, three additional groups of animals were exposed to the extinction conditions, in which cocaine was replaced by saline, and the cocaine-associated cue-light and tone were turned off. Active lever-pressing led only to saline infusion. Daily 3 hr extinction sessions for each rat continued until lever presses ≤10 times per 3 h session for at least 3 consecutive days. […] Fifteen min after injection, they were given a priming injection of oxycodone (1 mg/kg i.p.) and immediately put into the self-administration chambers. Animals were allowed to press levers for another extinction session and their responses on the levers were recorded.

cannabinoid CB2 receptor = cannabinoid CB2 receptor (Homo sapiens, UniProt P34972); assay: Binding to cannabinoid CB2 receptor
[5] = Phase I metabolic stability in rat liver microsomes; format: in vitro ADME; conditions: FIG. 2; 10 μM, 0.5 mg/mL microsomes
Description: Methods: Phase I metabolic stability assay was conducted in rat and rhesus monkey liver microsomes. For phase I metabolism, the reaction was carried out with 100 mM potassium phosphate buffer, pH 7.4, in the presence of NADPH regenerating system (1.3 mM NADPH, 3.3 mM glucose 6-phosphate, 3.3 mM MgCl2, 0.4 U/mL glucose-6-phosphate dehydrogenase, 50 μM sodium citrate). Reactions in triplicate were initiated by addition of the liver microsomes to the incubation mixture (compound final concentration was 10 μM; 0.5 mg/mL microsomes). Negative controls in the absence of cofactors were carried out to determine the specific cofactor-free degradation. Compound disappearance was monitored via LC/MS/MS. Chromatographic analysis was performed using an Accela™ ultra high-performance system consisting of an analytical pump, and an autosampler coupled with TSQ Vantage mass spectrometer (Thermo Fisher Scientific Inc., Waltham MA). […] The mobile phase used was composed of 0.1% Formic Acid in Acetonitrile and 0.1% Formic Acid in H2O with gradient elution, starting with 10% (organic) linearly increasing to 99% up to 2 min, maintaining at 99% (2-2.5 min) and re-equilibrating to 10% by 2.7 min. The total run time for each analyte was 5.0 min.

cannabinoid CB2 receptor, sequence (P34972 whole entry): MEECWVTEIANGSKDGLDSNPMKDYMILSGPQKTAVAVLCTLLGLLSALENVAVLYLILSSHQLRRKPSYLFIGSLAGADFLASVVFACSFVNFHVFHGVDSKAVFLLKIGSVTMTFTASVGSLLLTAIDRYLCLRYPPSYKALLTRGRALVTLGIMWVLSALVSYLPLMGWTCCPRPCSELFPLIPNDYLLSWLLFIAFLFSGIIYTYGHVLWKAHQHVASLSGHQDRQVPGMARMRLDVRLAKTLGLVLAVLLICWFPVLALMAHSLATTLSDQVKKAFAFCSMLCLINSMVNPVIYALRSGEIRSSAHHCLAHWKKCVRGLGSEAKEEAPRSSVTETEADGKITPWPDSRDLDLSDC

CPP produced by compound alone (Long-Evans rats [1]; rats, 15 mg/kg alone): did not produce CPP
binding to cannabinoid CB2 receptor (cannabinoid CB2 receptor): does not bind
Compound: CCc1cc(Cl)c(OC)c(N2CCN(CC(O)CCNC(=O)c3cc4ccccc4[nH]3)CC2)c1 (racemic) [Compound 29, N-(4-(4-(3-chloro-5-ethyl-2-methoxyphenyl)piperazin-1-yl)-3-hydroxybutyl)-1H-indole-2-carboxamide]
oxycodone induced CPP, posthoc comparison to (Vehicle+oxycodone) group (Long-Evans rats [1]; rats, 15 mg/kg, p<0.05): significant reduction in oxycodone induced CPP
oxycodone-induced CPP (Long-Evans rats [1]; rats, 5, 15 mg/kg ip, 15 min before each oxycodone injection (3 mg/kg ip), FIG. 10): dose-dependently attenuated oxycodone-induced CPP
thermal response after oxycodone challenge (oxycodone induced analgesia) (rats; 30 minutes following oxycodone 2 mg/kg i.p.): no significant effects on animal's thermal response; also recorded: no effect on oxycodone induced analgesia
thermal response after saline challenge (analgesic effect of its own) (rats; 30 minutes following saline 1 ml/kg i.p.): no significant effects on animal's thermal response; also recorded: no analgesic effects of its own
oxycodone self-administration (oxycodone taking) (Long-Evans rats [2]): attenuated self-administration at 15 and 25 mg/kg
oxycodone self-administration (oxycodone taking) (Long-Evans rats [2]; listed as (±)-29): attenuating effects
acquisition of oxycodone self-administration, number of infusions (Long-Evans rats [2]; pretreatment 5-15 mg/kg i.p., oxycodone 0.05 mg/kg/infusion, effect at 15 mg/kg): significantly lower number of infusions of oxycodone
sucrose self-administration [3]: no significant effects on sucrose self-administration
oxycodone-induced reinstatement to drug seeking (Long-Evans rats [4]; FIG. 4): blocked oxycodone-induced reinstatement to drug seeking
oxycodone-induced reinstatement to drug seeking (Long-Evans rats [4]; FIG. 4, listed as (±)-29): attenuating effects
metabolic stability in rat liver microsomes versus PG648 [5]: improved metabolic stability as compared to Compound 1; also recorded: significantly more stable than PG648
